Source: paper PMC4079550 (Theriogenology, 2014)

Legend:
male C57/Bl6 mice [1] = experiment: Testicular histology after treatment in vivo; design: species or system mouse; conditions: single dose, Bouin's fixative, Hematoxylin-Periodic acid Schiff's stain, Figure 3
mouse fibroblasts = experiment: LDH release cytotoxicity experiment using mouse fibroblasts; assay type: cell-based; conditions: at 72 hours, P<0.01 between the two
male C57/Bl6 mice [2] = experiment: Effect on spermatogenesis in vivo; design: species or system mouse
Sertoli cells = experiment: Anti-Mullerian hormone; assay type: cell-based, Sprague–Dawley rat; conditions: 20 uM, after 24 and 48 hours of incubation; bright staining in control cultures
murine testicular cells = experiment: Microscopic appearance of testicular cell cultures; assay type: cell-based, Sprague–Dawley rat; conditions: 20 μM, over 72 hours, Figure 2
male C57/Bl6 mice [3] = experiment: Systemic toxicity: complete blood counts and routine chemistries; assay type: in vivo, mouse; conditions: melphalan alone 7.5 mg/kg ip once, data not shown
mice = conditions: ref [24]; cited from earlier work
[4] = melphalan 7.5 mg/kg ip once on day 0, Week 4, n = 3 mice
[5] = melphalan 7.5 mg/kg ip once on day 0, Week 12, n = 3 mice

SMILES | Testis histology at four weeks (male C57/Bl6 mice [1]) | LDH release (mouse fibroblasts) | Daily Sperm Production/testis (male C57/Bl6 mice [2]; [4]) | Spermatids/Testis (male C57/Bl6 mice [2]; [4]) | Spermatids/mg of Tissue (male C57/Bl6 mice [2]; [4]) | Daily Sperm Production/testis (male C57/Bl6 mice [2]; [5]) | Spermatids/Testis (male C57/Bl6 mice [2]; [5]) | Spermatids/mg of Tissue (male C57/Bl6 mice [2]; [5]) | Staining for AMH (marker of Sertoli cells) (Sertoli cells) | Microscopic appearance of cultures compared to control cultures (murine testicular cells) | Lymphocytes count at 4 weeks (male C57/Bl6 mice [3]; 4 weeks) | Lymphocyte count at 12 weeks (male C57/Bl6 mice [3]; 12 weeks) | Increase of contraceptive efficacy by conjugation to FSHβ (mice)
N[C@@H](Cc1ccc(N(CCCl)CCCl)cc1)C(=O)O [Melphalan] | Marked loss of spermatocytes and spermatids | 20 % of maximal LDH release | 0.515±0.013 ×10^6 | 2.5±0.06 ×10^6 | 0.054±0.003 ×10^6 | 1.9±0.12 ×10^6 | 9.2±0.57 ×10^6 | 0.106±0.10 ×10^6 | very little | marked cell death | slight, non-significant reduction | normal | –
NNC(=O)c1nn(Cc2ccc(Cl)cc2Cl)c2ccccc12 [adjudin] | – | – | – | – | – | – | – | – | – | – | – | – | 10,000 fold
